{
  "source": "patent US20210260012A1",
  "about": "“COMPOSITIONS FOR THE PREVENTION AND TREATMENT OF CUTANEOUS AFFECTIONS” (I.C.F. SRL, priority 2018, published 2021)",
  "origin": "cited, not measured here",
  "system": "biofilms from E. coli",
  "conditions": "at high concentrations",
  "data": [
    {"smiles": "CC(=O)NC(CS)C(=O)O", "note": "(stereo not drawn) [Acetylcysteine, α-acetamido-β-mercaptopropanoic acid]", "values": [
      {"measurement": "reduction in the mass of biofilms", "result": "up to 55%"}
    ]}
  ]
}
